The values that follow come from ChEMBL document CHEMBL3632556, “Synthesis and biological evaluation of new C-10 substituted dithranol pleiotropic hybrids” (Bioorg Med Chem, 2015).

Data set [1] in a line: Lipophilicity, RM of the compound by RP-TLC method. It is filed as physicochemical.
The nature of data set [2]: Antioxidant activity assessed as inhibition of AAPH-induced linoleic acid lipid peroxidation at 100 uM. It is filed as physicochemical.
Data set [3] can be described thus: Antioxidant activity assessed as increase of DPPH free radical scavenging activity by measuring reducing activity at 100 uM after 60 mins by spectrophotometry. Format: physicochemical. The following applies: 1 h. (Loss of DPPH colour is used to gauge radical scavenging.)
The test system of data set [4] is Rattus norvegicus. The data set is described as follows: Acute toxicity in Fisher 344 rat up to 0.1 mmol/kg, ip. It is filed as organism-based. The following applies: in vivo.
A short description of data set [5]: Antioxidant activity assessed as DPPH free radical scavenging activity by measuring reducing activity at 100 uM after 20 mins by spectrophotometry. Further details: scale not given: the % may be the effect or the level left; call rule not given here. It is filed as physicochemical.
Another data set relates to Glycine max. The data set is described as follows: Inhibition of soybean LOX assessed as reduction in conversion of sodium linoleate to 13-hydroperoxylinoleic acid at 100 uM by UV analysis.
Data set [6] can be described thus: Drug degradation in DMSO up to 48 hrs. Format: physicochemical.
Data set [7] can be described thus: Cytotoxicity against human HaCaT cells assessed as cell survival at 1 uM after 48 hrs by MTT assay (reference value: 97.50 +/- 0.71%). It is filed as cell-based. The following applies: read-out: Survival.
A short description of data set [8]: Cytotoxicity against human HaCaT cells assessed as cell survival at 0.1 uM after 48 hrs by MTT assay (reference value: 96.75 +/- 1.77%). Particulars: read-out: Survival. Format: cell-based. On the technique in general: Formazan colour is commonly taken as a measure of viable cells.
Data set [9] relates to HaCaT. The data set is described as follows: Antiproliferative activity against human HaCaT cells after 24 hrs by MTT assay. It is filed as functional, cell-based.
The nature of data set [10]: Cytotoxicity against human HaCaT cells assessed as cell survival at 100 uM after 48 hrs by MTT assay (reference value: 88.07 +/- 9.81%). The following applies: read-out: Survival. Format: cell-based.
Data set [11] can be described thus: Cytotoxicity against human HaCaT cells assessed as cell survival at 10 uM after 48 hrs by MTT assay (reference value: 95.75 +/- 2.47%). It is filed as cell-based. Particulars: read-out: Survival.
A short description of data set [12]: Cytotoxicity against human HaCaT cells assessed as cell survival at 0.01 uM after 48 hrs by MTT assay (reference value: 100%). Format: cell-based. The following applies: read-out: Survival.
The subject of data set [13] is Rattus norvegicus. The data set is described as follows: Anti-inflammatory activity in Fisher 344 rat assessed as inhibition of carrageenan-induced paw edema at 0.01 mmol/kg, ip after 3.5 hrs. It is filed as functional. The following applies: Fisher 344, ip.
Data set [14] is described as follows: Inhibition of soybean LOX assessed as reduction in conversion of sodium linoleate to 13-hydroperoxylinoleic acid by UV analysis. On the set-up: species or system Glycine max.
Data set [15] can be described thus: Chemical stability in DMSO assessed as compound degradation at 1 mM after 5 days by HPLC analysis. The following applies: 120 h, 1000 µM. It is filed as physicochemical.
A short description of data set [16]: Drug metabolism in DMSO assessed as formation of oxidative product danthron at 1 mM after 2 days by HPLC analysis. It is filed as physicochemical. Particulars: 48 h, 1000 µM.
For data set [17], the system named is HaCaT. Put plainly: Antiproliferative activity against human HaCaT cells. It is filed as functional, cell-based.

Molecules are shown by their SMILES.

`NCCCCNC(=O)CC1c2cccc(O)c2C(=O)c2c(O)cccc21.O=C(O)C(F)(F)F` came in with a Rm in data set [1] of 0.63. Further, the “inhibition (INH)” value in data set [2] is 91%. The Activity result in [3] is “Not Active”; with Rattus norvegicus [4] it was “Non-toxic”; in data set [5], 65%. The inhibition in the data set on Glycine max was 35%.
In the case of `O=C1c2cccc(Cl)c2Cc2c(Cl)cccc21`, the Stability entry in data set [6] is “Unstable”.
With `CCCCCCCCCCCCNC(=O)CC1c2cccc(O)c2C(=O)c2c(O)cccc21`, the viability at 48 h, 1 µM in [7] is 14.6%. The viability at 48 h, 0.1 µM in data set [8] was 37.7%. Also, the “inhibition (INH)” value in data set [2] was determined as 74%. The molecule further had an IC50 in the data set with HaCaT [9] of 0.022 µM. Also, the Activity result in data set [3] is listed as “Not Active”; with Rattus norvegicus [4], “Non-toxic”; in data set [5], 98%. Further, the viability at 48 h, 100 µM in data set [10] came out at 1.22%. In the data set with Glycine max, the inhibition turned out to be 32%. In addition, in data set [11], the viability at 48 h, 10 µM is 7.79%. Further, the viability at 48 h, 0.01 µM in data set [12] came to 55.9%.
As to `COc1ccc(C(NC(=O)CC2c3cccc(O)c3C(=O)c3c(O)cccc32)c2ccc(OC)cc2)cc1`, in the data set with Rattus norvegicus [13], the inhibition in vivo at 10 µmol/kg was found to be 79.7%. The Rm in [1] worked out at 0.66. In addition, in data set [7], the viability at 48 h, 1 µM is 38%. Also, the values for the IC50 (in data set [14] (read-out: IC50); in the data set with HaCaT [9]) were 7 µM and 0.56 µM, respectively. For the same molecule, the Stability result in data set [15] and in data set [16] was “Stable” each time. Further, in [8], the viability at 48 h, 0.1 µM turned out to be 44%. For the same molecule, the “inhibition (INH)” value in [2] is listed as 95%. The values for the Activity entry (in data set [3]; with Rattus norvegicus [4]; in [5]) were “Active”, “Non-toxic” and 86%, respectively. Moreover, in [10], the viability at 48 h, 100 µM worked out at 9.65%. In addition, the viability at 48 h, 10 µM in data set [11] worked out at 20.3%. The viability at 48 h, 0.01 µM in data set [12] stood at 79.8%.
For the molecule `O=C1c2c(O)cccc2Cc2cccc(O)c21` [ANTHRALIN], the IC50 in the data set with HaCaT [17] is 0.7 µM; in [14] it was “Not Active”; in the data set on HaCaT [9], 0.945 µM. Besides, the inhibition in vivo at 10 µmol/kg with Rattus norvegicus [13] was determined as 42%. For the same molecule, the Rm in [1] is 0.7. The viability at 48 h, 1 µM in [7] worked out at 48.1%. Also, the viability at 48 h, 0.1 µM in [8] was found to be 87.8%. In addition, in data set [2], the “inhibition (INH)” value is 28%. Further, the Activity result is “Active” in data set [3], “Non-toxic” with Rattus norvegicus [4] and 31% in data set [5]. In data set [10], the viability at 48 h, 100 µM came to 1.7%. Also, the viability at 48 h, 10 µM in [11] was determined as 5.23%. Moreover, the viability at 48 h, 0.01 µM in data set [12] was found to be 94.5%.

The inhibition is the relative decrease from the control value, in per cent. Usually IC50 stands for the point on the concentration scale where inhibition reaches its midpoint. For orientation: inhibition in vivo means the drop in the measured response relative to a control, in per cent.
